# In PubChem BioAssay AID192 (DTP/NCI, 2004):
# Several values for one entry are separate records, joined by “and”; a condition that tells them apart may be missing. Equal values may be shown once. Inconclusive results and toxic doses are left out.
# Test system: BDF1 mice, B16 melanoma ip, median survival T/C
# Experiment: NCI In Vivo Anticancer Drug Screen. Data for tumor model B16 Melanoma (intraperitoneal) in B6D2F1 (BDF1) mice
# Conditions: endpoint: median survival time, higher = longer survival
# Outline: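 Survival or tumor size is measured after treatment of tumor-bearing mice and normalised to the vehicle-treated control group.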
# [1] = dose: 50.0 mg/kg/injection, schedule: Q01DX009 (ip), vehicle: saline with Tween-80
# [2] = dose: 100.0 mg/kg/injection, schedule: Q01DX009 (ip), vehicle: saline with Tween-80
# [3] = dose: 200.0 mg/kg/injection, schedule: Q01DX009 (ip), vehicle: saline with Tween-80
# [4] = dose: 6.25 mg/kg/injection, schedule: Q01DX009 (ip), vehicle: Klucel (hydroxypropylcellulose) (HPC)
# [5] = dose: 6.25 mg/kg/injection, schedule: Q01DX009 (ip), vehicle: saline with Tween-80
# [6] = dose: 12.5 mg/kg/injection, schedule: Q01DX009 (ip), vehicle: saline with Tween-80
# [7] = dose: 50.0 mg/kg/injection, schedule: Q01DX009 (ip), vehicle: saline
# [8] = dose: 100.0 mg/kg/injection, schedule: Q01DX009 (ip), vehicle: saline
# [9] = dose: 25.0 mg/kg/injection, schedule: Q01DX009 (ip), vehicle: saline with Tween-80
# [10] = dose: 25.0 mg/kg/injection, schedule: Q01DX009 (ip), vehicle: Klucel (hydroxypropylcellulose) (HPC)
# [11] = dose: 100.0 mg/kg/injection, schedule: Q01DX009 (ip), vehicle: Klucel (hydroxypropylcellulose) (HPC)
structure (smiles),measurement,setting,value
CCC1CC2CN(CCc3c([nH]c4ccccc34)C(C(=O)OC)(c3cc4c(cc3OC)N(C)C3C(O)(C(=O)OC)C(OC(C)=O)C5(CC)C=CCN6CCC43C65)C2)C1 (stereo not drawn),T/C,"dose: 0.05 mg/kg/injection, schedule: Q01DX009 (ip), vehicle: Klucel (hydroxypropylcellulose) (HPC)",111 % of control
same,T/C,"dose: 0.06 mg/kg/injection, schedule: Q01DX009 (ip), vehicle: water",109 % of control and 110 % of control
same,T/C,"dose: 0.13 mg/kg/injection, schedule: Q01DX009 (ip), vehicle: water",105 % of control and 114 % of control
same,T/C,"dose: 0.25 mg/kg/injection, schedule: Q01DX009 (ip), vehicle: water",173 % of control
same,T/C,"dose: 0.4 mg/kg/injection, schedule: Q01DX009 (ip), vehicle: Klucel (hydroxypropylcellulose) (HPC)",192 % of control
same,T/C,"dose: 0.5 mg/kg/injection, schedule: Q01DX009 (ip), vehicle: water",210 % of control
same,T/C,"dose: 0.5 mg/kg/injection, schedule: Q04DX003 (ip), vehicle: water",166 % of control
same,T/C,"dose: 0.8 mg/kg/injection, schedule: Q01DX009 (ip), vehicle: Klucel (hydroxypropylcellulose) (HPC)",224 % of control
same,T/C,"dose: 1.0 mg/kg/injection, schedule: Q01DX009 (ip), vehicle: water",151 % of control and 163 % of control and 174 % of control
same,T/C,"dose: 1.0 mg/kg/injection, schedule: Q04DX003 (ip), vehicle: water",206 % of control
same,T/C,"dose: 1.6 mg/kg/injection, schedule: Q01DX009 (ip), vehicle: Klucel (hydroxypropylcellulose) (HPC)",229 % of control
same,T/C,"dose: 2.0 mg/kg/injection, schedule: Q01DX009 (ip), vehicle: water",170 % of control and 178 % of control
same,T/C,"dose: 2.0 mg/kg/injection, schedule: Q04DX003 (ip), vehicle: water",234 % of control
Cc1ccc(C(=O)CCCCl)c(C)c1,T/C,[1],100 % of control
same,T/C,[2],101 % of control
same,T/C,[3],108 % of control
COc1c(O)c2c(c3cc(C(=O)N4CCc5c4c(O)c(OC)c4[nH]c(C(=O)N6CC7CC78C6=CC(=O)c6[nH]cc(C)c68)cc54)[nH]c13)CCN2C(N)=O (stereo not drawn),T/C,"dose: 10.0 micrograms/kg/injection, schedule: Q01DX009 (ip), vehicle: other",181 % of control
O=C(O)CCC(=O)O,T/C,"dose: 10.0 mg/kg/injection, schedule: Q01DX009 (ip), vehicle: water",101 % of control [middle of 4 runs]
same,T/C,"dose: 20.0 mg/kg/injection, schedule: Q01DX009 (ip), vehicle: water",102 % of control [middle of 4 runs]
same,T/C,"dose: 40.0 mg/kg/injection, schedule: Q01DX009 (ip), vehicle: water",101 % of control and 119 % of control and 98 % of control
same,T/C,"dose: 80.0 mg/kg/injection, schedule: Q01DX009 (ip), vehicle: water",93 % of control and 100 % of control and 104 % of control
same,T/C,"dose: 160.0 mg/kg/injection, schedule: Q01DX009 (ip), vehicle: water",88 % of control and 94 % of control and 114 % of control
same,T/C,"dose: 320.0 mg/kg/injection, schedule: Q01DX009 (ip), vehicle: water",106 % of control
COc1ccc2c(c1OC(C)=O)-c1cc(OC(C)=O)cc3c1C(C2)N(C(=O)CN(CCCl)CCCl)CC3 (stereo not drawn),T/C,"dose: 1.56 mg/kg/injection, schedule: Q04DX003 (ip), vehicle: DMSO",92 % of control
same,T/C,"dose: 3.13 mg/kg/injection, schedule: Q04DX003 (ip), vehicle: DMSO",108 % of control
same,T/C,"dose: 6.25 mg/kg/injection, schedule: Q04DX003 (ip), vehicle: DMSO",115 % of control
same,T/C,"dose: 25.0 mg/kg/injection, schedule: Q04DX003 (ip), vehicle: DMSO",165 % of control
CCc1cccc[n+]1[O-],T/C,"dose: 400.0 mg/kg/injection, schedule: Q01DX009 (ip), vehicle: saline with Tween-80",96 % of control
same,T/C,"dose: 600.0 mg/kg/injection, schedule: Q01DX009 (ip), vehicle: saline with Tween-80",96 % of control
COc1ccccc1N1CCN(CCc2c[nH]c3cc4c(cc23)OCO4)CC1,T/C,"dose: 1.56 mg/kg/injection, schedule: Q01DX009 (ip), vehicle: Klucel (hydroxypropylcellulose) (HPC)",89 % of control
same,T/C,[4],89 % of control
CC1=CCC=C(CNc2ncnc3nc[nH]c23)C1,T/C,"dose: 3.13 mg/kg/injection, schedule: Q01DX009 (ip), vehicle: saline with Tween-80",102 % of control
same,T/C,[5],102 % of control
same,T/C,[6],90 % of control
same,T/C,"dose: 12.5 mg/kg/injection, schedule: Q04DX003 (ip), vehicle: saline with Tween-80",100 % of control
same,T/C,"dose: 25.0 mg/kg/injection, schedule: Q04DX003 (ip), vehicle: saline with Tween-80",102 % of control
same,T/C,[1],88 % of control
same,T/C,"dose: 50.0 mg/kg/injection, schedule: Q04DX003 (ip), vehicle: saline with Tween-80",102 % of control
COc1cc(C2=NCCc3cc4c(cc32)OCO4)cc(OC)c1OC,T/C,"dose: 12.5 mg/kg/injection, schedule: Q01DX009 (ip), vehicle: saline",112 % of control
same,T/C,"dose: 25.0 mg/kg/injection, schedule: Q01DX009 (ip), vehicle: saline",118 % of control
same,T/C,[7],104 % of control
same,T/C,[8],101 % of control
S=C(Nc1ccccn1)c1ccccn1,T/C,[6],92 % of control
same,T/C,[9],112 % of control
same,T/C,[1],94 % of control
same,T/C,[2],93 % of control
O=C(Nc1cccc(C(F)(F)F)c1)NC1CCCCC1,T/C,"dose: 100.0 mg/kg/injection, schedule: Q04DX003 (ip), vehicle: gum acacia",87 % of control
same,T/C,"dose: 200.0 mg/kg/injection, schedule: Q04DX003 (ip), vehicle: gum acacia",89 % of control
same,T/C,"dose: 400.0 mg/kg/injection, schedule: Q04DX003 (ip), vehicle: gum acacia",87 % of control
COc1ccc(/C=C/c2ccc3ccccc3[n+]2C)c(OC)c1OC,T/C,"dose: 2.5 mg/kg/injection, schedule: Q01DX009 (ip), vehicle: saline",104 % of control
same,T/C,"dose: 5.0 mg/kg/injection, schedule: Q01DX009 (ip), vehicle: saline",113 % of control
C/C=C(/C(=O)NC(N)=O)C(C)C,T/C,[10],100 % of control
same,T/C,"dose: 50.0 mg/kg/injection, schedule: Q01DX009 (ip), vehicle: Klucel (hydroxypropylcellulose) (HPC)",105 % of control
same,T/C,[11],105 % of control
same,T/C,"dose: 200.0 mg/kg/injection, schedule: Q01DX009 (ip), vehicle: Klucel (hydroxypropylcellulose) (HPC)",94 % of control
same,T/C,"dose: 400.0 mg/kg/injection, schedule: Q01DX009 (ip), vehicle: Klucel (hydroxypropylcellulose) (HPC)",97 % of control
Nc1nc(N)c2nc(CNc3ccc(C(=O)NC(CCC(=O)O)C(=O)O)cc3)cnc2n1 (stereo not drawn),T/C,"dose: 0.03 mg/kg/injection, schedule: Q01DX009 (ip), vehicle: saline with Tween-80",91 % of control
same,T/C,"dose: 0.13 mg/kg/injection, schedule: Q01DX009 (ip), vehicle: saline with Tween-80",102 % of control
same,T/C,"dose: 0.25 mg/kg/injection, schedule: Q01DX009 (ip), vehicle: saline with Tween-80",91 % of control and 95 % of control
Cc1ccc(NC(=O)Nc2ccccc2)cc1Cl,T/C,"dose: 100.0 mg/kg/injection, schedule: Q01DX008 (sc), vehicle: olive oil, sesame oil, peanut oil",99 % of control
same,T/C,"dose: 200.0 mg/kg/injection, schedule: Q01DX008 (sc), vehicle: olive oil, sesame oil, peanut oil",96 % of control
same,T/C,"dose: 400.0 mg/kg/injection, schedule: Q01DX008 (sc), vehicle: olive oil, sesame oil, peanut oil",98 % of control
Cc1cc(C)cc(OC(=O)Nc2ccccc2Cl)c1,T/C,"dose: 100.0 mg/kg/injection, schedule: Q04DX003 (ip), vehicle: Klucel (hydroxypropylcellulose) (HPC)",96 % of control
same,T/C,"dose: 200.0 mg/kg/injection, schedule: Q04DX003 (ip), vehicle: Klucel (hydroxypropylcellulose) (HPC)",96 % of control
same,T/C,"dose: 400.0 mg/kg/injection, schedule: Q04DX003 (ip), vehicle: Klucel (hydroxypropylcellulose) (HPC)",106 % of control
CCCCCCCCCCCCCCCCCCN(C)C,T/C,[4],104 % of control
same,T/C,"dose: 12.5 mg/kg/injection, schedule: Q01DX009 (ip), vehicle: Klucel (hydroxypropylcellulose) (HPC)",107 % of control
same,T/C,[10],89 % of control and 101 % of control
OCN(CO)c1nc(N(CO)CO)nc(N(CO)CO)n1,T/C,[5],97 % of control
same,T/C,[6],100 % of control
same,T/C,[9],94 % of control
same,T/C,[1],92 % of control
same,T/C,[3],90 % of control
COP(=O)(OC)OCc1cnc(SC)nc1N,T/C,[7],121 % of control
same,T/C,[8],100 % of control
O=C(Nc1nncs1)c1cccs1,T/C,[6],101 % of control
same,T/C,[9],109 % of control
same,T/C,[1],121 % of control
same,T/C,[2],109 % of control
same,T/C,[3],106 % of control
CC(OCc1ccccc1)C(NC(=O)OC(C)(C)C)C(=O)O (stereo not drawn),T/C,[5],97 % of control
same,T/C,[6],98 % of control
same,T/C,[9],102 % of control
same,T/C,[1],88 % of control and 95 % of control
CCN(CC)CCOc1ccc(NC2=C(Cl)C(=O)C(Nc3ccc(OCCN(CC)CC)cc3)=C(Cl)C2=O)cc1,T/C,"dose: 6.25 mg/kg/injection, schedule: Q01DX009 (ip), vehicle: saline + alcohol",95 % of control
same,T/C,"dose: 12.5 mg/kg/injection, schedule: Q01DX009 (ip), vehicle: saline + alcohol",98 % of control
same,T/C,"dose: 25.0 mg/kg/injection, schedule: Q01DX009 (ip), vehicle: saline + alcohol",91 % of control
O=P(CCCCCCP(=O)(N1CC1)N1CC1)(N1CC1)N1CC1,T/C,[11],176 % of control
